# Legend:
# Format in all cases: physicochemical
# [1] = 6 month dry powder stability, HPLC assay
# From the text: (§1) NUC-3373 prepared according to Example 3 and Comparative Example 4 was packed into a transparent LDPE bag which was then filled with nitrogen and tied with a strip seal. This bag was then placed into another transparent LDPE bag which was also filled with nitrogen. A silica gel packet was placed between the two bags before the outermost bag was tied with a strip seal. These bags were then placed in a triple laminated sun light barrier bag which was sealed with a heat sealer. The bags were kept in a HDPE container.
# (§2) NUC-3373 was initially assayed by HPLC after manufacture (0 months) then after 1 and 2 and/or 3 and 6 months of storage at 2-8° C., 25° C. or 40° C.
# [2] = Solution stability, alpha naphthol (0.60 RRT) in DMA:Saline (80:20 v/v); parameters: 0.60 RRT (Alpha Naphthol): unit not given here; settings: 400 mg/mL in DMA:Saline (80:20 v/v)
# Procedure: Stability data is also provided in Table 4, which compares the levels of alpha naphthol (0.60 RRT) present in solutions of 400 mg/mL NUC-3373, prepared by Example 3 or 4, above, in DMA:Saline (80:20 v/v) at different temperatures measured over set periods of time. The tested solutions are suitable for infusion and injection and the temperatures and times measured are representative of the environments that solutions suitable for infusion and injection would typically be stored in.
# In Table 4 the two values provided for each temperature at each time period, separated by “/”, represent different preparations (samples) of that synthesis.
# [3] = 6 month dry powder stability, Alpha Naphthol content by HPLC
# From the text: as §1, §2
# The Alpha Naphthol content of the same batches was also determined by HPLC. The levels of the alpha naphthol impurity is a key indicator of stability of the tested material.
smiles,measurement,setting,value
"C[C@H](NP(=O)(OC[C@H]1O[C@@H](n2cc(F)c(=O)[nH]c2=O)CC1O)Oc1cccc2ccccc12)C(=O)OCc1ccccc1 (stereo partly drawn) [Comparative Example 4, 5-fluoro-2′-deoxyuridine-5′-O-[1-naphthyl (benzoxy-L-alaninyl)] phosphate]","Decrease after 6 months, HPLC assay",[1]; 2-8 ° C.,None
same,HPLC assay (% w/w on anhydrous and solvent free basis),"[1]; 2-8 ° C., 0 months",100 % w/w
same,HPLC assay (% w/w on anhydrous and solvent free basis),"[1]; 2-8 ° C., 3 months",100 % w/w
same,HPLC assay (% w/w on anhydrous and solvent free basis),"[1]; 2-8 ° C., 6 months",100 % w/w
same,"Decrease after 6 months, HPLC assay",[1]; 25 ° C.,0.1 % w/w
same,HPLC assay (% w/w on anhydrous and solvent free basis),"[1]; 25 ° C., 0 months",99.7 % w/w
same,HPLC assay (% w/w on anhydrous and solvent free basis),"[1]; 25 ° C., 3 months",99.5 % w/w
same,HPLC assay (% w/w on anhydrous and solvent free basis),"[1]; 25 ° C., 6 months",99.6 % w/w
same,"Decrease after 6 months, HPLC assay",[1]; 40 ° C.,2.0 % w/w
same,HPLC assay (% w/w on anhydrous and solvent free basis),"[1]; 40 ° C., 0 months",99.7 % w/w
same,HPLC assay (% w/w on anhydrous and solvent free basis),"[1]; 40 ° C., 1 month",99.3 % w/w
same,HPLC assay (% w/w on anhydrous and solvent free basis),"[1]; 40 ° C., 2 months",99.0 % w/w
same,HPLC assay (% w/w on anhydrous and solvent free basis),"[1]; 40 ° C., 3 months",99.3 % w/w
same,HPLC assay (% w/w on anhydrous and solvent free basis),"[1]; 40 ° C., 6 months",97.7 % w/w
same,0.60 RRT (Alpha Naphthol),"[2]; After 1 month at 2-8° C., first preparation (before ""/"")",0.04/0.04
same,0.60 RRT (Alpha Naphthol),"[2]; After 1 month at 2-8° C., second preparation (after ""/"")",0.04/0.04
same,0.60 RRT (Alpha Naphthol),"[2]; After 1 month at 25 ± 5° C., first preparation (before ""/"")",0.29/0.29
same,0.60 RRT (Alpha Naphthol),"[2]; After 1 month at 25 ± 5° C., second preparation (after ""/"")",0.29/0.29
same,0.60 RRT (Alpha Naphthol),"[2]; After 3 months at 2-8° C., first preparation (before ""/"")",0.06/0.06
same,0.60 RRT (Alpha Naphthol),"[2]; After 3 months at 2-8° C., second preparation (after ""/"")",0.06/0.06
same,0.60 RRT (Alpha Naphthol),"[2]; After 3 months at 25 ± 5° C., first preparation (before ""/"")",0.45
same,0.60 RRT (Alpha Naphthol),"[2]; After 3 months at 25 ± 5° C., second preparation (after ""/"")",0.46
same,0.60 RRT (Alpha Naphthol),"[2]; After 15 days at 2-8° C., first preparation (before ""/"")",0.04/0.04
same,0.60 RRT (Alpha Naphthol),"[2]; After 15 days at 2-8° C., second preparation (after ""/"")",0.04/0.04
same,0.60 RRT (Alpha Naphthol),"[2]; After 15 days at 25 ± 5° C., first preparation (before ""/"")",0.19
same,0.60 RRT (Alpha Naphthol),"[2]; After 15 days at 25 ± 5° C., second preparation (after ""/"")",0.20
same,0.60 RRT (Alpha Naphthol),[2]; Initial,0.02
same,"Increase after 6 months, Alpha Naphthol by HPLC",[3]; 2-8 ° C.,None
same,Alpha Naphthol by HPLC (% w/w),"[3]; 2-8 ° C., 0 months",0.09 % w/w
same,Alpha Naphthol by HPLC (% w/w),"[3]; 2-8 ° C., 3 months",0.10 % w/w
same,Alpha Naphthol by HPLC (% w/w),"[3]; 2-8 ° C., 6 months",0.09 % w/w
same,"Increase after 6 months, Alpha Naphthol by HPLC",[3]; 25 ° C.,0.1 % w/w
same,Alpha Naphthol by HPLC (% w/w),"[3]; 25 ° C., 0 months",0.09 % w/w
same,Alpha Naphthol by HPLC (% w/w),"[3]; 25 ° C., 3 months",0.10 % w/w
same,Alpha Naphthol by HPLC (% w/w),"[3]; 25 ° C., 6 months",0.10 % w/w
same,"Increase after 6 months, Alpha Naphthol by HPLC",[3]; 40 ° C.,1.11 % w/w
same,Alpha Naphthol by HPLC (% w/w),"[3]; 40 ° C., 0 months",0.09 % w/w
same,Alpha Naphthol by HPLC (% w/w),"[3]; 40 ° C., 1 month",0.18 % w/w
same,Alpha Naphthol by HPLC (% w/w),"[3]; 40 ° C., 2 months",0.27 % w/w
same,Alpha Naphthol by HPLC (% w/w),"[3]; 40 ° C., 3 months",0.18 % w/w
same,Alpha Naphthol by HPLC (% w/w),"[3]; 40 ° C., 6 months",1.2 % w/w
"C[C@H](NP(=O)(OC[C@H]1O[C@@H](n2cc(F)c(=O)[nH]c2=O)CC1O)Oc1cccc2ccccc12)C(=O)OCc1ccccc1 (stereo partly drawn) [Example 3, Batch 3, 5-fluoro-2′-deoxyuridine-5′-O-[1-naphthyl (benzoxy-L-alaninyl)] phosphate]","Decrease after 6 months, HPLC assay",[1]; 2-8 ° C.,None
same,HPLC assay (% w/w on anhydrous and solvent free basis),"[1]; 2-8 ° C., 0 months",100.3 % w/w
same,HPLC assay (% w/w on anhydrous and solvent free basis),"[1]; 2-8 ° C., 3 months",101.9 % w/w
same,HPLC assay (% w/w on anhydrous and solvent free basis),"[1]; 2-8 ° C., 6 months",100.5 % w/w
same,"Decrease after 6 months, HPLC assay",[1]; 25 ° C.,None
same,HPLC assay (% w/w on anhydrous and solvent free basis),"[1]; 25 ° C., 0 months",100.3 % w/w
same,HPLC assay (% w/w on anhydrous and solvent free basis),"[1]; 25 ° C., 3 months",101.8 % w/w
same,HPLC assay (% w/w on anhydrous and solvent free basis),"[1]; 25 ° C., 6 months",101.0 % w/w
same,"Decrease after 6 months, HPLC assay",[1]; 40 ° C.,None
same,HPLC assay (% w/w on anhydrous and solvent free basis),"[1]; 40 ° C., 0 months",100.3 % w/w
same,HPLC assay (% w/w on anhydrous and solvent free basis),"[1]; 40 ° C., 1 month",100.6 % w/w
same,HPLC assay (% w/w on anhydrous and solvent free basis),"[1]; 40 ° C., 2 months",101.5 % w/w
same,HPLC assay (% w/w on anhydrous and solvent free basis),"[1]; 40 ° C., 3 months",102.2 % w/w
same,HPLC assay (% w/w on anhydrous and solvent free basis),"[1]; 40 ° C., 6 months",100.8 % w/w
same,"Increase after 6 months, Alpha Naphthol by HPLC",[3]; 2-8 ° C.,None
same,Alpha Naphthol by HPLC (% w/w),"[3]; 2-8 ° C., 0 months",0.18 % w/w
same,Alpha Naphthol by HPLC (% w/w),"[3]; 2-8 ° C., 3 months",0.18 % w/w
same,Alpha Naphthol by HPLC (% w/w),"[3]; 2-8 ° C., 6 months",0.17 % w/w
same,"Increase after 6 months, Alpha Naphthol by HPLC",[3]; 25 ° C.,None
same,Alpha Naphthol by HPLC (% w/w),"[3]; 25 ° C., 0 months",0.18 % w/w
same,Alpha Naphthol by HPLC (% w/w),"[3]; 25 ° C., 3 months",0.18 % w/w
same,Alpha Naphthol by HPLC (% w/w),"[3]; 25 ° C., 6 months",0.17 % w/w
same,"Increase after 6 months, Alpha Naphthol by HPLC",[3]; 40 ° C.,None
same,Alpha Naphthol by HPLC (% w/w),"[3]; 40 ° C., 0 months",0.18 % w/w
same,Alpha Naphthol by HPLC (% w/w),"[3]; 40 ° C., 1 month",0.17 % w/w
same,Alpha Naphthol by HPLC (% w/w),"[3]; 40 ° C., 2 months",0.17 % w/w
same,Alpha Naphthol by HPLC (% w/w),"[3]; 40 ° C., 3 months",0.17 % w/w
same,Alpha Naphthol by HPLC (% w/w),"[3]; 40 ° C., 6 months",0.15 % w/w

# Reference: patent US20250296948A1, “SYNTHESIS OF NUCLEOSIDE DERIVATIVES” (Nucana plc, priority 2022, published 2025)
